Columns and labels:
[1] = biological target: T1, C. thermarum ACAD10 kinase domain (Caldalkalibacillus thermarum, UniProt F5L6J0); experiment: X-ray crystallography, […] Å; type: binding; settings: nucleotide groove between N- and C-lobe; Mg2+ and acetyl-CoA in crystallization, neither seen
T1 construct: gene CathTA2_1440; purified prokaryotic ACAD10 kinase domain homolog; HYDxK motif with D214/K216, N219, DWE motif D234-E236, R61, E78

[2] = biological target: T1, C. thermarum ACAD10 kinase domain; experiment: […] incorporation, TLC, phosphorimaging; type: biochemical; settings: activator; binding site only modelled, no density in crystal
[3] = biological target: T2, C. elegans ACAD10 KD (ACAD10 kinase domain) (Caenorhabditis elegans, UniProt O01590); experiment: […] incorporation into lipid, TLC; type: biochemical; settings: activator; purified domain with mouse liver mitochondrial extract as lipid source; Mg2+
T2 construct: gene acds-10; kinase domain, residues 209-568, purified
T2 sequence (O01590 209-568): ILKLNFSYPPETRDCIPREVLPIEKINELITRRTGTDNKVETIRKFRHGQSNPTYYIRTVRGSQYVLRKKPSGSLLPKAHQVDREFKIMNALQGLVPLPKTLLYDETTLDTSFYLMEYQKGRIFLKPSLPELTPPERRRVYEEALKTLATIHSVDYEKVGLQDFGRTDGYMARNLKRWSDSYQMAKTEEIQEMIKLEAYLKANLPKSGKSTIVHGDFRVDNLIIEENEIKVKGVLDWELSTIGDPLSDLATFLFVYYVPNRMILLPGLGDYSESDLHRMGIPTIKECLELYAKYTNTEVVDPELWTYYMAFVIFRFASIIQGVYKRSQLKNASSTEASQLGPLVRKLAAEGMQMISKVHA

[4] = biological target: T3, C. elegans ACAD10 phosphatase domain (Caenorhabditis elegans, UniProt O01590); experiment: dephosphorylation of […]-labelled lipid, TLC, phosphorimaging; type: biochemical; settings: labelled compound; Mg2+
T3 construct: gene acds-10; phosphatase domain, residues 1-212
T3 sequence (O01590 1-212): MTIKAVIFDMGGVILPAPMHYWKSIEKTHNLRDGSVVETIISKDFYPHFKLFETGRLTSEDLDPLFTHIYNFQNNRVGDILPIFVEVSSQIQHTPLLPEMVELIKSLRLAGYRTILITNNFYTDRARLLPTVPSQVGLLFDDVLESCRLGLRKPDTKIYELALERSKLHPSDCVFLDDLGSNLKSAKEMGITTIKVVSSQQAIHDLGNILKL

[5] = biological target: T2, C. elegans ACAD10 KD (ACAD10 kinase domain); experiment: […] incorporation, TLC, phosphorimaging; type: biochemical; settings: [γ-32P]ATP

## Nc1ncnc2c1ncn2[C@@H]1O[C@H](COP(=O)(O)OP(=O)(O)NP(=O)(O)O)[C@@H](O)[C@H]1O [AMP-PNP]
[1]
  X-ray crystallography, 2.15 Å: crystal structure of the Caldalkalibacillus thermarum ACAD10 kinase domain bound to the ATP analog AMP-PNP

## CC(=O)SCCNC(=O)CCNC(=O)[C@H](O)C(C)(C)COP(=O)(O)OP(=O)(O)OC[C@H]1O[C@@H](n2cnc3c(N)ncnc32)[C@H](O)[C@@H]1OP(=O)(O)O [acetyl-CoA]
[2]
  32P incorporation, TLC, phosphorimaging: acetyl-CoA stimulates C. thermarum ACAD10 kinase domain
[3]
  32P incorporation into lipid, TLC: In addition to acetyl-CoA, CoA alone or other CoA thioesters also activated

## CCCCCCCCCCCCCCCCOC[C@H](COP(=O)(O)O)OC(C)=O [1-alkyl (16:0), 2-acetyl (2:0), 1-O-alkyl-2-acetyl-sn-glycero-3-phosphate]
[4]
  dephosphorylation of 32P-labelled lipid, TLC, phosphorimaging: phosphatase domain selectively dephosphorylated 1-O-alkyl-2-acetyl-sn-glycero-3-phosphate but not 1-O-alkyl-2-acyl-sn-glycero-3-phosphate

## CCCCCCCCCCCCCCCCOCC(O)CO (racemic) [chimyl alcohol, 1-O-hexadecyl-rac-glycerol]
[5]
  32P incorporation, TLC, phosphorimaging: C. elegans ACAD10 phosphorylated chimyl alcohol (1-O-hexadecyl-rac-glycerol) (Figure 1G)

From publication doi:10.1101/2025.09.10.675409, “ACAD10 encodes two orphan enzymes in the ether lipid biosynthetic and salvage pathways” (bioRxiv, 2026)
